Test results reported in ChEMBL document CHEMBL4480443, “Synthesis and biological evaluation of solubilized sulfonamide analogues of the phosphatidylinositol 3-kinase inhibitor ZSTK474” (Bioorg Med Chem, 2019).
One block for each molecule: values may come before it.

Tests used:
[1] = 0.25 h
physchem [2] = settings: aqueous medium with DMSO
physchem [3] = settings: buffer

solubility [1]: Insoluble
Structure (SMILES): COc1cccc2c1nc(C(F)F)n2-c1nc(N2CCOCC2)nc(N2CCN(S(C)(=O)=O)CC2)n1

Structure (SMILES): COc1cccc2c1nc(C(F)F)n2-c1nc(N2CCOCC2)nc(N2CCN(S(=O)(=O)CCN(C)C)CC2)n1.Cl
solubility at 0.25 h (physchem [2]): 0.024 mg/mL

Structure (SMILES): COc1cccc2c1nc(C(F)F)n2-c1nc(N2CCOCC2)nc(N2CCN(S(=O)(=O)CCN(C)C)CC2)n1.CS(=O)(=O)O
solubility (physchem [3]): > 0.059 mg/mL
